One may read the Ki as a dissociation constant, usually derived from enzyme kinetics or from competition with a known ligand.

One assay addresses T1, recombinant human NK3 receptor (Homo sapiens, UniProt P29371).
T1 construct: expressed in transfected cells; host or cells: HEK293 cells, transient expression; membranes
T1 sequence (P29371 1-465): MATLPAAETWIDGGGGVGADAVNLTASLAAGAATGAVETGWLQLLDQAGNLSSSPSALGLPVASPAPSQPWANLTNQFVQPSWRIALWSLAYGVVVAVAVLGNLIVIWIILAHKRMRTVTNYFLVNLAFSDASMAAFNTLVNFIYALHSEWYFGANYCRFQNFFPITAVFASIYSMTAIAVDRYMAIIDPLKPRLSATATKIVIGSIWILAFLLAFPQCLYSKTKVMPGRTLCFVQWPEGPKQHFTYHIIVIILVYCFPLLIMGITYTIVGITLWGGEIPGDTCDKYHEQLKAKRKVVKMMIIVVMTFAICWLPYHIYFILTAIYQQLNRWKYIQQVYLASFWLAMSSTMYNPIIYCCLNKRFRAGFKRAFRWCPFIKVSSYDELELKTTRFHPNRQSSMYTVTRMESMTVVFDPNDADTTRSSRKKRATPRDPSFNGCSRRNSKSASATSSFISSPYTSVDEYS
The assay is described as follows: [3H]SR142801 competition binding assay.
Conditions: not given
As to `CN(C(=O)Oc1ccc(F)cc1)[C@@H]1CN(C(=O)C2CCN(C(=O)c3ccc(F)cn3)CC2)C[C@H]1c1ccc(Cl)cc1` [Example 262, {(3S,4R)-4-(4-Chloro-phenyl)-1-[1-(5-fluoro-pyridine-2-carbonyl)-piperidine-4-carbonyl]-pyrrolidin-3-yl}-methyl-carbamic acid 4-fluoro-phenyl ester], the Ki came out at 3.9 nM.

For the compound `CN(C(=O)Oc1ccc(F)cc1)[C@@H]1CN(C(=O)C2CCN(c3ccc(C(F)(F)F)cn3)CC2)C[C@H]1c1ccc(Cl)cc1` [Example 181, [(3S,4R)-4-(4-Chloro-phenyl)-1-(5′-trifluoromethyl-3,4,5,6-tetrahydro-2H-[1,2′]bipyridinyl-4-carbonyl)-pyrrolidin-3-yl]-methyl-carbamic acid 4-fluoro-phenyl ester], the inhibition constant Ki came out at 2.8 nM.

Take `CN(C(=O)Oc1ccncc1)[C@@H]1CN(C(=O)C2CCN(C(=O)C3(C)CC3)CC2)C[C@H]1c1ccc(Cl)c(Cl)c1` [Example 297, {(3S,4R)-4-(3,4-Dichloro-phenyl)-1-[1-(1-methyl-cyclopropanecarbonyl)-piperidine-4-carbonyl]-pyrrolidin-3-yl}-methyl-carbamic acid pyridin-4-yl ester]: the Ki was determined as 5.9 nM.

On to `CN(C(=O)Oc1ccc(F)cc1)[C@@H]1CN(C(=O)C2CCN(C(=O)C3(C#N)CC3)CC2)C[C@H]1c1ccc(Cl)cc1` [Example 254, {(3S,4R)-4-(4-Chloro-phenyl)-1-[1-(1-cyano-cyclopropanecarbonyl)-piperidine-4-carbonyl]-pyrrolidin-3-yl}-methyl-carbamic acid 4-fluoro-phenyl ester], for which the Ki was found to be 2 nM.

On to `Cc1ccc(N2CCC(C(=O)N3C[C@@H](N(C)C(=O)Oc4ccc(F)cc4)[C@H](c4ccc(Cl)cc4)C3)CC2)nc1` [Example 194, [(3S,4R)-4-(4-Chloro-phenyl)-1-(5′-methyl-3,4,5,6-tetrahydro-2H-[1,2′]bipyridinyl-4-carbonyl)-pyrrolidin-3-yl]-methyl-carbamic acid 4-fluoro-phenyl ester], for which the Ki is 3.5 nM.

For `CN(C(=O)OCc1ccc(F)cc1)[C@H]1CN(C(=O)C2CCN(C(=O)C3(C)CC3)CC2)C[C@@H]1c1ccc(Cl)c(Cl)c1` (racemic) [Example 95, rac-{(3R,4S)-4-(3,4-Dichloro-phenyl)-1-[1-(1-methyl-cyclopropanecarbonyl)-piperidine-4-carbonyl]-pyrrolidin-3-yl}-methyl-carbamic acid 4-fluoro-benzyl ester], the Ki stood at 5.8 nM.

Turning to `CN(C(=O)Oc1ccc(F)cc1)[C@H]1CN(C(=O)CCN2CCCC2=O)C[C@@H]1c1ccc(Cl)c(Cl)c1` (racemic) [Example 56, rac-{(3R,4S)-4-(3,4-Dichloro-phenyl)-1-[3-(2-oxo-pyrrolidin-1-yl)-propionyl]-pyrrolidin-3-yl}-methyl-carbamic acid 4-fluoro-phenyl ester], the Ki was found to be 61.3 nM.

For `CCC(=O)N1CCC(C(=O)N2C[C@@H](N(C)C(=O)Oc3ccc(F)cc3)[C@H](c3ccc(Cl)cc3)C2)C1` (stereo partly drawn) [Example 170, [(3S,4R)-4-(4-Chloro-phenyl)-1-(1-propionyl-pyrrolidine-3-carbonyl)-pyrrolidin-3-yl]-methyl-carbamic acid 4-fluoro-phenyl ester], the inhibition constant Ki was 8.3 nM.

In the case of `CN(C(=O)Oc1ccc(F)cc1)[C@@H]1CN(C(=O)C2CCN(c3ccncn3)CC2)C[C@H]1c1ccc(Cl)cc1` [Example 191, [(3S,4R)-4-(4-Chloro-phenyl)-1-(1-pyrimidin-4-yl-piperidine-4-carbonyl)-pyrrolidin-3-yl]-methyl-carbamic acid 4-fluoro-phenyl ester], the Ki came out at 1.2 nM.

For `CN(C(=O)Oc1ccc(F)cc1)[C@@H]1CN(C(=O)C2CCN(C(=O)C3CC(F)C3)CC2)C[C@H]1c1ccc(Cl)cc1` (stereo partly drawn) [Example 249, {(3S,4R)-4-(4-Chloro-phenyl)-1-[1-(3-fluoro-cyclobutanecarbonyl)-piperidine-4-carbonyl]-pyrrolidin-3-yl}-methyl-carbamic acid 4-fluoro-phenyl ester], the Ki came out at 1.9 nM.

In the case of `CCC(OC(=O)N(C)[C@@H]1CN(C(=O)C2CCN(c3ccc(C#N)cn3)CC2)C[C@H]1c1ccc(Cl)cc1)c1ccc(F)cc1` (stereo partly drawn) [Example 236, [(3S,4R)-4-(4-Chloro-phenyl)-1-(5′-cyano-3,4,5,6-tetrahydro-2H-[1,2′]bipyridinyl-4-carbonyl)-pyrrolidin-3-yl]-methyl-carbamic acid 1-(4-fluoro-phenyl)-propyl ester], the inhibition constant (Ki) worked out at 64.8 nM.

As to `Cc1cccc(OC(=O)N(C)[C@@H]2CN(C(=O)C3CCN(c4ccc(C#N)cn4)CC3)C[C@H]2c2ccc(Cl)cc2)c1` [Example 230, [(3S,4R)-4-(4-Chloro-phenyl)-1-(5′-cyano-3,4,5,6-tetrahydro-2H-[1,2′]bipyridinyl-4-carbonyl)-pyrrolidin-3-yl]-methyl-carbamic acid m-tolyl ester], the inhibition constant (Ki) worked out at 2.7 nM.

Take `CN(C(=O)Oc1ccc(F)cc1)[C@@H]1CN(C(=O)C2CCN(c3cc(C#N)ccn3)CC2)C[C@H]1c1ccc(Cl)cc1` [Example 185, [(3S,4R)-4-(4-Chloro-phenyl)-1-(4′-cyano-3,4,5,6-tetrahydro-2H-[1,2′]bipyridinyl-4-carbonyl)-pyrrolidin-3-yl]-methyl-carbamic acid 4-fluoro-phenyl ester]: the Ki came to 3 nM.

For the compound `Cc1ccccc1OC(=O)N(C)[C@@H]1CN(C(=O)C2CCN(c3ccc(C#N)cn3)CC2)C[C@H]1c1ccc(Cl)cc1` [Example 229, [(3S,4R)-4-(4-Chloro-phenyl)-1-(5′-cyano-3,4,5,6-tetrahydro-2H-[1,2′]bipyridinyl-4-carbonyl)-pyrrolidin-3-yl]-methyl-carbamic acid o-tolyl ester], the Ki was 16.8 nM.

Regarding `CN(C(=O)Oc1ccc(F)c(Br)c1)[C@@H]1CN(C(=O)C2CCN(C(=O)C3(C)CC3)CC2)C[C@H]1c1ccc(Cl)c(Cl)c1` [Example 113, {(3S,4R)-4-(3,4-Dichloro-phenyl)-1-[1-(1-methyl-cyclopropanecarbonyl)-piperidine-4-carbonyl]-pyrrolidin-3-yl}-methyl-carbamic acid 3-bromo-4-fluoro-phenyl ester], the Ki was 0.3 nM.

As to `CN(C(=O)Oc1ccc(F)cc1)[C@H]1CN(C(=O)C2CCOCC2)C[C@@H]1c1ccc(Cl)c(Cl)c1` (racemic) [Example 44, rac-[(3R,4S)-4-(3,4-Dichloro-phenyl)-1-(tetrahydro-pyran-4-carbonyl)-pyrrolidin-3-yl]-methyl-carbamic acid 4-fluoro-phenyl ester], the Ki is 2.9 nM.

Regarding `CN(C(=O)OCC1CCOC1)[C@@H]1CN(C(=O)C2CCN(c3ccc(C#N)cn3)CC2)C[C@H]1c1ccc(Cl)cc1` (stereo partly drawn) [Example 233, [(3S,4R)-4-(4-Chloro-phenyl)-1-(5′-cyano-3,4,5,6-tetrahydro-2H-[1,2′]bipyridinyl-4-carbonyl)-pyrrolidin-3-yl]-methyl-carbamic acid tetrahydro-furan-3-ylmethyl ester], the inhibitory constant (Ki) was found to be 6 nM.

Still in this assay, the particulars now being: hNK-3 receptor affinity; membranes from HEK293 cells transiently expressing recombinant human NK3 receptor; [3H]SR142801; Cheng-Prussoff; read-out: Data Ki.
Consider `CC(OC(=O)N(C)[C@@H]1CN(C(=O)C2CCN(c3ccc(C#N)cn3)CC2)C[C@H]1c1ccc(Cl)cc1)C1CC1` (stereo partly drawn) [Example 153, [(3S,4R)-4-(4-Chloro-phenyl)-1-(5′-cyano-3,4,5,6-tetrahydro-2H-[1,2′]bipyridinyl-4-carbonyl)-pyrrolidin-3-yl]-methyl-carbamic acid 1-cyclopropyl-ethyl ester], for which the Ki stood at 19.2 nM.

Turning to `CN(C(=O)O[C@H]1CC[C@@H](C(F)(F)F)CC1)[C@H]1CN(C(=O)C2CCN(C(=O)C3(C)CC3)CC2)C[C@@H]1c1ccc(Cl)c(Cl)c1` [Example 107, {(3R,4S)-4-(3,4-Dichloro-phenyl)-1-[1-(1-methyl-cyclopropanecarbonyl)-piperidine-4-carbonyl]-pyrrolidin-3-yl}-methyl-carbamic acid 4-trifluoromethyl-cyclohexyl ester], the Ki worked out at 58.6 nM.

As for `CN(C(=O)Nc1ccc(F)cc1)[C@H]1CN(C(=O)C2CCN(C(=O)C3(C)CC3)CC2)C[C@@H]1c1ccc(Cl)cc1` (racemic) [Example 96, rac-1-{(3R,4S)-4-(4-Chloro-phenyl)-1-[1-(1-methyl-cyclopropanecarbonyl)-piperidine-4-carbonyl]-pyrrolidin-3-yl}-3-(4-fluoro-phenyl)-1-methyl-urea], the Ki was determined as 53.7 nM.

On to `CN(C(=O)OCC1(C)CC1)[C@@H]1CN(C(=O)C2CCN(c3ccc(C#N)cn3)CC2)C[C@H]1c1ccc(Cl)cc1` [Example 217, [(3S,4R)-4-(4-Chloro-phenyl)-1-(5′-cyano-3,4,5,6-tetrahydro-2H-[1,2′]bipyridinyl-4-carbonyl)-pyrrolidin-3-yl]-methyl-carbamic acid 1-methyl-cyclopropylmethyl ester], for which the Ki was 7.7 nM.

Take `CN(C(=O)OCC1(C)CC1)[C@H]1CN(C(=O)C2CCN(C(=O)C3(C)CC3)CC2)C[C@@H]1c1ccc(Cl)c(Cl)c1` [Example 106, {(3R,4S)-4-(3,4-Dichloro-phenyl)-1-[1-(1-methyl-cyclopropanecarbonyl)-piperidine-4-carbonyl]-pyrrolidin-3-yl}-methyl-carbamic acid 1-methyl-cyclopropylmethyl ester]: the inhibitory constant (Ki) stood at 1 nM.

For the compound `CN(C(=O)OCCCC(F)(F)F)[C@H]1CN(C(=O)C2CCN(C(=O)C3(C)CC3)CC2)C[C@@H]1c1ccc(Cl)c(Cl)c1` (racemic) [Example 67, rac-{(3R,4S)-4-(3,4-Dichloro-phenyl)-1-[1-(1-methyl-cyclopropanecarbonyl)-piperidine-4-carbonyl]-pyrrolidin-3-yl}-methyl-carbamic acid 4,4,4-trifluoro-butyl ester], the Ki turned out to be 0.4 nM.

Source of the values: patent US9226916B2, “Pyrrolidine derivatives” (HOFFMANN-LA ROCHE INC., priority 2009, dated 2016).
